Assay results from patent US10597388B2, “Pyridazinone herbicides” (FMC CORPORATION, priority 2014, dated 2020).

Experiments:
Assay type in all cases: in vivo
[1] = tested on: ryegrass, Italian (Italian ryegrass, Lolium multiflorum); assay: Test A greenhouse herbicide test, pre- and postemergence
From the text: (§1) Seeds of plant species selected from barnyardgrass (Echinochloa crus-galli), kochia (Kochia scoparia), ragweed (common ragweed, Ambrosia elatior), ryegrass, Italian (Italian ryegrass, Lolium multiflorum), crabgrass, large (large crabgrass, Digitaria sanguinalis), foxtail, giant (giant foxtail, Setaria faberii), momingglory (Ipomoea spp.), pigweed (Amaranthus retroflexus), velvetleaf (Abutilon theophrasti), wheat (Triticum aestivum), and corn (Zea mays) were planted into a blend of loam soil and sand and treated preemergence with a directed soil spray using test chemicals formulated in a non-phytotoxic solvent mixture which included a surfactant.
(§2) At the same time, plants selected from these crop and weed species and also blackgrass (Alopecurus myosuroides), and galium (catchweed bedstraw, Galium aparine) were planted in pots containing the same blend of loam soil and sand and treated with postemergence applications of test chemicals formulated in the same manner. Plants ranged in height from 2 to 10 cm and were in the one- to two-leaf stage for the postemergence treatment. Treated plants and untreated controls were maintained in a greenhouse for approximately 10 d, after which time all treated plants were compared to untreated controls and visually evaluated for injury. Plant response ratings, summarized in Table A, are based on a 0 to 100 scale where 0 is no effect and 100 is complete control. A dash (-) response means no test result.

kochia (Kochia scoparia) = assay: as above
From the text: as §1, §2

[2] = tested on: pigweed (Amaranthus retroflexus); assay: as above
From the text: as §1, §2

[3] = tested on: barnyardgrass (Echinochloa crus-galli); assay: as above
From the text: as §1, §2

[4] = tested on: foxtail, giant (giant foxtail, Setaria faberii); assay: as above
From the text: as §1, §2

[5] = tested on: ragweed (common ragweed, Ambrosia elatior); assay: as above
From the text: as §1, §2

[6] = tested on: wheat (Triticum aestivum); assay: as above; conditions: Postemergence
From the text: as §1, §2

corn (Zea mays) = assay: as above; conditions: Postemergence
From the text: as §1, §2

[7] = tested on: blackgrass (Alopecurus myosuroides); assay: Test A greenhouse herbicide test, postemergence
In short: (§3)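 Visual injury score, 0 (no effect) to 100 (complete control), versus untreated controls roughly 10 d after postemergence spray; plants at one- to two-leaf stage, 2 to 10 cm tall, in loam soil and sand, kept in greenhouse.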

[8] = tested on: galium (catchweed bedstraw, Galium aparine); assay: Test A greenhouse herbicide test, postemergence
In short: as §3

rice (Oryza sativa) = assay: Test B flooded paddy test; conditions: 250 g ai/ha, Flood; visual rating on scale of 0 to 100 where 0 is no effect and 100 is complete control; 13 to 15 d after treatment
In short: (§4)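 Plants grown to the 2-leaf stage. At treatment, pots were flooded to 3 cm above the soil, compound was applied directly to the paddy water, and that depth was held throughout. After 13 to 15 d in the greenhouse, response was rated visually against controls on a 0 (no effect) to 100 (complete control) scale.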

[9] = tested on: barnyardgrass (Echinochloa crus-galli); assay: Test B flooded paddy test; conditions: 250 g ai/ha, Flood; visual rating on scale of 0 to 100 where 0 is no effect and 100 is complete control; 13 to 15 d after treatment
In short: as §4

[10] = tested on: ducksalad (Heteranthera limosa); assay: Test B flooded paddy test; conditions: 250 g ai/ha, Flood; visual rating on scale of 0 to 100 where 0 is no effect and 100 is complete control; 13 to 15 d after treatment
In short: as §4

[11] = tested on: sedge, umbrella (small-flower umbrella sedge, Cyperus difformis); assay: Test B flooded paddy test; conditions: 250 g ai/ha, Flood; visual rating on scale of 0 to 100 where 0 is no effect and 100 is complete control; 13 to 15 d after treatment
In short: as §4

[12] = Postemergence, 125 g ai/ha, 0 to 100 scale where 0 is no effect and 100 is complete control
[13] = Postemergence, 500 g ai/ha, visual rating after approx. 10 d, 0 to 100 scale (0 no effect, 100 complete control)
[14] = Preemergence, 125 g ai/ha, 0 to 100 scale where 0 is no effect and 100 is complete control
[15] = Preemergence, 500 g ai/ha, 0 to 100 scale where 0 is no effect and 100 is complete control
[16] = 125 g ai/ha, 0 to 100 scale where 0 is no effect and 100 is complete control
[17] = 500 g ai/ha, visual rating after approx. 10 d, 0 to 100 scale (0 no effect, 100 complete control)
[18] = Postemergence, 125 g ai/ha, 0 to 100 scale, 0 no effect, 100 complete control
[19] = Preemergence, 125 g ai/ha, visual injury rating, 0 to 100 scale (0 no effect, 100 complete control), approx. 10 d
[20] = 125 g ai/ha, 0 to 100 scale, 0 no effect, 100 complete control

| SMILES | Plant response rating, Ryegrass, Italian [1, 12] | Plant response rating, Ryegrass, Italian [1, 13] | Ryegrass, Italian plant response rating [1, 14] | Plant response rating, Ryegrass, Italian [1, 15] | Plant response rating, Kochia (kochia (Kochia scoparia); [13]) | Plant response rating, Kochia (kochia (Kochia scoparia); [15]) | Plant response rating, Pigweed [2, 13] | Plant response rating, Pigweed [2, 15] | Plant response rating, Barnyardgrass [3, 15] | Plant response rating, Foxtail, Giant [4, 13] | Plant response rating, Foxtail, Giant [4, 15] | Plant response rating, Ragweed [5, 13] | Plant response rating, Ragweed [5, 15] | Plant response rating, Wheat [6, 17] | Plant response rating, Corn (corn (Zea mays); [17]) | Plant response rating, Galium [8, 17] | Plant response rating, Rice (rice (Oryza sativa)) | Plant response rating, Barnyardgrass [9] | Plant response rating, Ducksalad [10] | Plant response rating, Sedge, Umbrella [11] | other results |
| --- | --- | --- | --- | --- | --- | --- | --- | --- | --- | --- | --- | --- | --- | --- | --- | --- | --- | --- | --- | --- | --- |
| CCc1ccc2ccc(C)cc2c1-c1c(O)c(C)nn(C)c1=O [Compound 103] | 100 | 100 | 90 | 100 | 90 | 40 | 100 | 100 | 90 | 90 | 100 | 100 | 100 | 20 | 60 | 100 | 0 | 30 | 0 | 50 | Plant response rating, Kochia (kochia (Kochia scoparia); [12]): 50; Kochia plant response rating (kochia (Kochia scoparia); [14]): 20; Plant response rating, Pigweed [2, 12]: 90; Pigweed plant response rating [2, 14]: 100; Plant response rating, Barnyardgrass [3, 12]: 40; Barnyardgrass plant response rating ([3]; Postemergence, 500 g ai/ha, 0 to 100 scale, 0 is no effect, 100 is complete control): 90; Barnyardgrass plant response rating [3, 14]: 40; Plant response rating, Foxtail, Giant [4, 12]: 90; Foxtail, Giant plant response rating [4, 14]: 80; Plant response rating, Ragweed [5, 12]: 100; Ragweed plant response rating [5, 14]: 90; Plant response rating, Wheat [6, 16]: 0; Plant response rating, Corn (corn (Zea mays); [16]): 20; Plant response rating, Blackgrass [7, 16]: 70; Blackgrass plant response rating ([7]; 500 g ai/ha, 0 to 100 scale, 0 is no effect, 100 is complete control): 90; Plant response rating, Galium [8, 16]: 100 |
| CC(=O)Oc1ccc2cccc(-c3c(OC(C)=O)c(C)nn(C)c3=O)c2c1 [Compound 124] | 0 | 0 | 0 | 30 | 0 | 20 | 0 | 0 | 0 | 0 | 0 | 0 | 0 | 0 | 0 | 30 | 0 | 0 | 0 | 0 | Plant response rating, Kochia (kochia (Kochia scoparia); [12]): 0; Kochia plant response rating (kochia (Kochia scoparia); [14]): 0; Plant response rating, Pigweed [2, 12]: 0; Pigweed plant response rating [2, 14]: 0; Plant response rating, Barnyardgrass [3, 12]: 20; Plant response rating, Barnyardgrass [3, 13]: 30; Barnyardgrass plant response rating [3, 14]: 0; Plant response rating, Foxtail, Giant [4, 12]: 0; Foxtail, Giant plant response rating [4, 14]: 0; Plant response rating, Ragweed [5, 12]: 0; Ragweed plant response rating [5, 14]: 0; Plant response rating, Wheat [6, 16]: 0; Plant response rating, Corn (corn (Zea mays); [16]): 0; Plant response rating, Blackgrass [7, 16]: 0; Plant response rating, Blackgrass [7, 17]: 0; Plant response rating, Galium [8, 16]: 0 |
| COC(=O)Cn1nc(C)c(O)c(-c2cccc3ccccc23)c1=O [Compound 172] | – | 60 | – | 20 | 20 | 0 | 30 | 0 | 50 | 80 | 90 | 0 | 0 | 20 | 0 | 40 | 0 | 0 | 0 | 0 | Plant response rating, Ryegrass, Italian [1, 18]: 20; Plant response rating, Ryegrass, Italian [1, 19]: 0; Plant response rating, Kochia (kochia (Kochia scoparia); [18]): 0; Plant response rating, Kochia (kochia (Kochia scoparia); [19]): 0; Plant response rating, Pigweed [2, 18]: 0; Plant response rating, Pigweed [2, 19]: 0; Plant response rating, Barnyardgrass [3, 18]: 40; Plant response rating, Barnyardgrass [3, 13]: 70; Plant response rating, Barnyardgrass [3, 19]: 20; Plant response rating, Foxtail, Giant [4, 18]: 40; Plant response rating, Foxtail, Giant [4, 19]: 60; Plant response rating, Ragweed [5, 18]: 0; Plant response rating, Ragweed [5, 19]: 0; Plant response rating, Wheat [6, 20]: 20; Plant response rating, Corn (corn (Zea mays); [20]): 0; Plant response rating, Blackgrass [7, 20]: 20; Plant response rating, Blackgrass [7, 17]: 30; Plant response rating, Galium [8, 20]: 20 |
